Measurements taken from patent publication US9637483B2, “Heterocyclic compound” (TAKEDA PHARMACEUTICAL COMPANY LIMITED, priority 2013, dated 2017).

Assays:
Format in all cases: biochemical
JAK2 = target: T1, JAK2 (Homo sapiens, UniProt O60674); test: JAK2 enzyme inhibition test (LANCE method); conditions: 1 μM test compound; for inhibition at 1 µM: read-out: JAK2 enzyme inhibitory activity (%, 1 μM)
T1 construct: purchased Invitrogen
In short: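 TR-FRET (LANCE) read-out, ex 340/em 665 nm with 100 μs delay, after 1 hr room-temperature detection with europium anti-phosphotyrosine antibody and 20 mM EDTA. The preceding 1 hr kinase reaction combined JAK2, ULight-JAK1 substrate and ATP, added as 6 ng/mL, 300 nM and 45 μM solutions; enzyme-free wells defined 100% inhibition.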

JAK3 = target: T2, JAK3 (Homo sapiens, UniProt P52333); test: JAK3 enzyme inhibition test (LANCE method); conditions: 1 μM test compound; for inhibition at 1 µM: read-out: JAK3 enzyme inhibitory activity (%, 1 μM)
T2 construct: purchased Invitrogen
T2 sequence (P52333 1-1124): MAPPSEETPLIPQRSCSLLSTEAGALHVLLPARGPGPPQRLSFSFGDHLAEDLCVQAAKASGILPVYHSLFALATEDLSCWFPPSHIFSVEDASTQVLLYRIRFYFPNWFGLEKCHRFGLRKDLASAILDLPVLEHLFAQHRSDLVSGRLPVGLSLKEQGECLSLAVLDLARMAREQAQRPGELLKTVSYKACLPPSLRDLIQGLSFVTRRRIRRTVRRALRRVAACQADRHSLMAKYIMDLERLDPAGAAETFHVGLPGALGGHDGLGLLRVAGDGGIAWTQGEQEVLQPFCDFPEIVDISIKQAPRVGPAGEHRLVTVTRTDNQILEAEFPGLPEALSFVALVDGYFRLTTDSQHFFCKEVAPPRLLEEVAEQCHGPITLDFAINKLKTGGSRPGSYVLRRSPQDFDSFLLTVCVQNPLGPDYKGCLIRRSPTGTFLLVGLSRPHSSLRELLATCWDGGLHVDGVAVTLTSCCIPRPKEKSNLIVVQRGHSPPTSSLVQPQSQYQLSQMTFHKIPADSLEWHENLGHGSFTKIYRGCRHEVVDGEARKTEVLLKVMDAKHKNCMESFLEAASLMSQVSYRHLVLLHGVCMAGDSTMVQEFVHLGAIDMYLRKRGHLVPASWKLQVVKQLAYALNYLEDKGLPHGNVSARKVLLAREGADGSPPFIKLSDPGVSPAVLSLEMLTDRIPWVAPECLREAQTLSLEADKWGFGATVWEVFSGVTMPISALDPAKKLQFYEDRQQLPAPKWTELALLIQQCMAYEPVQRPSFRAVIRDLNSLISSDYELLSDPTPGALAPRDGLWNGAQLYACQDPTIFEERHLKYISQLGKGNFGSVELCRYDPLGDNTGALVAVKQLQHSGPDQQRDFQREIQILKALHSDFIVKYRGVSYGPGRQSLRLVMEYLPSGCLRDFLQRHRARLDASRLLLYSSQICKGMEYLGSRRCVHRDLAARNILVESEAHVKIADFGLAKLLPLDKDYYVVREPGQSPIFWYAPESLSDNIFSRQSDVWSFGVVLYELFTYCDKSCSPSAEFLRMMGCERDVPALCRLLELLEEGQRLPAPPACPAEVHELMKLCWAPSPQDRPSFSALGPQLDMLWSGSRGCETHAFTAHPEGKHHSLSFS
In short: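 TR-FRET (LANCE) read: 1 h room-temperature reaction, EDTA quench, Eu-anti-phosphotyrosine antibody, emission 665 nm after 340 nm excitation. Added solutions held 12 ng/mL JAK3, 300 nM ULight-JAK1 substrate and 15 μM ATP (pH 7.5 HEPES). Activity expressed against no-enzyme wells defined as full inhibition.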

JAK1 = target: T3, JAK1 (Homo sapiens, UniProt P23458); test: JAK1 enzyme inhibition test (LANCE method); conditions: 1 μM test compound; for inhibition at 1 µM: read-out: JAK1 enzyme inhibitory activity (%, 1 μM)
T3 construct: purchased Invitrogen
T3 sequence (P23458 whole entry): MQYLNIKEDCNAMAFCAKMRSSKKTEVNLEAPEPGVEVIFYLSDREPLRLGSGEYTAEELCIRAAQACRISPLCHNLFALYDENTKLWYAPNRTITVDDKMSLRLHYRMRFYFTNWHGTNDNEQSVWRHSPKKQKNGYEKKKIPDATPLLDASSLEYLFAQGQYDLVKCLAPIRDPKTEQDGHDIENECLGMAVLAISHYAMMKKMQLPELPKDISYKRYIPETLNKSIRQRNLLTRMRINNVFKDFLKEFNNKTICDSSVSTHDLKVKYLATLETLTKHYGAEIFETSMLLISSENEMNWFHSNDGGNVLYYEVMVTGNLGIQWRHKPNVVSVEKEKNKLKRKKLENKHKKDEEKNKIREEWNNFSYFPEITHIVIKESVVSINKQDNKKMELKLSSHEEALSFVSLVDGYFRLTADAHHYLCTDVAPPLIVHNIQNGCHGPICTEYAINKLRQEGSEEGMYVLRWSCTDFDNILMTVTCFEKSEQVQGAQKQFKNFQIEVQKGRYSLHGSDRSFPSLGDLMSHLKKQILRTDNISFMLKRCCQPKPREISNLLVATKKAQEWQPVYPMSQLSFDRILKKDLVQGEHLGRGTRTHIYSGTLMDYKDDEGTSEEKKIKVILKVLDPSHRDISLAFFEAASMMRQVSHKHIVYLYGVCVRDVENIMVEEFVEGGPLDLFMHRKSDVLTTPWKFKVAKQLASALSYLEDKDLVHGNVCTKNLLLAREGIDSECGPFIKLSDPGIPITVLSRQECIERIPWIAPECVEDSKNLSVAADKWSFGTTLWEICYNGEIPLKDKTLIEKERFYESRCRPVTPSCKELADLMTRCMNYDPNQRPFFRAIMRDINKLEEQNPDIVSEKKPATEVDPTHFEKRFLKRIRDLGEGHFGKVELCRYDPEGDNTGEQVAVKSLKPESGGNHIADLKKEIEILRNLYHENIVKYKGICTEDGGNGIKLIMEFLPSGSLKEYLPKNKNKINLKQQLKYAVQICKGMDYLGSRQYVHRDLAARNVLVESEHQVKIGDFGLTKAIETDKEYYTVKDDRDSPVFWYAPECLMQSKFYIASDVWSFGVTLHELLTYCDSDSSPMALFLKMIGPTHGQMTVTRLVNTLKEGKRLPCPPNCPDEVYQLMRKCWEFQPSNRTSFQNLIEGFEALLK
In short: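 Inhibition expressed against no-enzyme wells (100% inhibition), from time-resolved fluorescence at 665 nm after Eu-anti-phosphotyrosine antibody/EDTA detection. Kinase reaction ran 1 h at room temperature, pH 7.5 HEPES buffer, ULight-JAK1 substrate and ATP diluted to 300 nM and 150 μM before addition.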

TYK2 = target: T4, TYK2 (Homo sapiens, UniProt P29597); test: TYK2 enzyme inhibition test (LANCE method); conditions: 1 μM test compound; for inhibition at 1 µM: read-out: TYK2 enzyme inhibitory activity (%, 1 μM)
T4 construct: purchased Invitrogen
T4 sequence (P29597 whole entry): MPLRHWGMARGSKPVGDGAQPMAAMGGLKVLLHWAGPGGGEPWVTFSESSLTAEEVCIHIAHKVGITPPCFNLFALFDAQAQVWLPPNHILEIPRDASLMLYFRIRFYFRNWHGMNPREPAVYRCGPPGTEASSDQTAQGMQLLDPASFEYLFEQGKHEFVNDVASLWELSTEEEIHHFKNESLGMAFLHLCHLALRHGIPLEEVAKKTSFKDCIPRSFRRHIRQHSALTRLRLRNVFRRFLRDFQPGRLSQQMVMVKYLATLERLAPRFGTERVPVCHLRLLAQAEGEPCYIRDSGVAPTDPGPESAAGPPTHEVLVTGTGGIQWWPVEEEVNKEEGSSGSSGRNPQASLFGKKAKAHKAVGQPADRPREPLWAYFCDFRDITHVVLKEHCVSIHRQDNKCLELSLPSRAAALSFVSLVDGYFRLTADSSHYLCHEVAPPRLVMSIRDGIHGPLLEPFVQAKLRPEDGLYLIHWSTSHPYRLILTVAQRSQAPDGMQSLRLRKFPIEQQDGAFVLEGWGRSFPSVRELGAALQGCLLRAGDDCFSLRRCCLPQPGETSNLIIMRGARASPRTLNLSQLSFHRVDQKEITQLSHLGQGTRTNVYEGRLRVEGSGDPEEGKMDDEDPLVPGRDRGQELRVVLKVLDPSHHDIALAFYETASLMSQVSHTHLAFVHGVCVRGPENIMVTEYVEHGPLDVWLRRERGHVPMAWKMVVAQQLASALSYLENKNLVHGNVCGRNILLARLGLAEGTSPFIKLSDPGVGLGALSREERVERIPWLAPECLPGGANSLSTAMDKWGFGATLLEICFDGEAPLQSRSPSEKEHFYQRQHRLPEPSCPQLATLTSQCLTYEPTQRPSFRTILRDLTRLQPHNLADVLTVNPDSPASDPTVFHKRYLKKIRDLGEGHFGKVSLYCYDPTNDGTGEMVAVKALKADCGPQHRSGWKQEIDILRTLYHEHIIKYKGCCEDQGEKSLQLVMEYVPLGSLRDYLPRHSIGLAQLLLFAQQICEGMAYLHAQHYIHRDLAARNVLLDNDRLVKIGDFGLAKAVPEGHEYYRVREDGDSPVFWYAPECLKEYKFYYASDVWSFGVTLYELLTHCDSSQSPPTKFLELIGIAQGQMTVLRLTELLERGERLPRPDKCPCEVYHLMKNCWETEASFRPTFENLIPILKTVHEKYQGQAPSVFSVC
In short: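 TR-FRET (LANCE) readout: after 1 h room-temperature kinase reaction, EDTA plus 4 nM Eu-labelled anti-phosphotyrosine antibody added, signal at 665 nm (340 nm excitation). Reaction combined TYK2, ULight-JAK1 substrate and ATP, prepared at 375 ng/mL, 300 nM and 30 μM before addition, in pH 7.5 HEPES/MgCl2 buffer; enzyme-free wells define full inhibition.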

T1 sequence (O60674 whole entry): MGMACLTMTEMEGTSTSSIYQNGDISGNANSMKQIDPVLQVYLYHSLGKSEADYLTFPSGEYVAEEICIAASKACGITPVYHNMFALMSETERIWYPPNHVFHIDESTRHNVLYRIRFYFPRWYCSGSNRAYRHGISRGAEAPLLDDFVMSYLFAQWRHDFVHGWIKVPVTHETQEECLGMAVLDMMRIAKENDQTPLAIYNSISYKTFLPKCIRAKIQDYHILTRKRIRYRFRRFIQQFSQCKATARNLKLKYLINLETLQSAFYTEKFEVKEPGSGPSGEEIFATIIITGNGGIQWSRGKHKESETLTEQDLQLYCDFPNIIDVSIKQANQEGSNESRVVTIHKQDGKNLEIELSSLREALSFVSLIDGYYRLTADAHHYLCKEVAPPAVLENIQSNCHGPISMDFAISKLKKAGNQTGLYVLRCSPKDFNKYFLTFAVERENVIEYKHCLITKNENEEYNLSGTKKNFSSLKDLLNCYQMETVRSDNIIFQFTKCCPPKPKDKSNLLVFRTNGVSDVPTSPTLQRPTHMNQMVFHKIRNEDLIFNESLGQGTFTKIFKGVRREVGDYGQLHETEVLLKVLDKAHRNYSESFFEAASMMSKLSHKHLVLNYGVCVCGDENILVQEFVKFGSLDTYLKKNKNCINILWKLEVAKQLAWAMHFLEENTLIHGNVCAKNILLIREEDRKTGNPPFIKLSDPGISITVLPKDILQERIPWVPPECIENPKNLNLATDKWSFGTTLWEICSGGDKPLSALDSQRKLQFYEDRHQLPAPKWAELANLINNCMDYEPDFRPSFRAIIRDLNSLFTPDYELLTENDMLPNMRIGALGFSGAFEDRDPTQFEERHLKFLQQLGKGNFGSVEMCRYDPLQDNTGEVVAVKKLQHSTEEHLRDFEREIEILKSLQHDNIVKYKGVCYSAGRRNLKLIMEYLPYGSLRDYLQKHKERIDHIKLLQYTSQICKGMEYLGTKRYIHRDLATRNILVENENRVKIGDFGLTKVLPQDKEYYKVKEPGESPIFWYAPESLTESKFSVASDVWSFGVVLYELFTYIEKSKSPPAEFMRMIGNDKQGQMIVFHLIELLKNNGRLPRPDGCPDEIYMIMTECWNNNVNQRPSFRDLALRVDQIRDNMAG

SMILES | inhibition at 1 µM (JAK2) [%] | inhibition at 1 µM (JAK3) [%] | inhibition at 1 µM (JAK1) [%] | inhibition at 1 µM (TYK2) [%] | JAK2 enzyme inhibitory activity (%, 1 μM) (JAK2) [%] | JAK3 enzyme inhibitory activity (%, 1 μM) (JAK3) [%] | JAK1 enzyme inhibitory activity (%, 1 μM) (JAK1) [%] | TYK2 enzyme inhibitory activity (%, 1 μM) (TYK2) [%]
CC1CCCCC1n1cc(-c2cc(C(C)(C)O)n(C)n2)c2[nH]nc(N)c2c1=O (stereo not drawn) [Example 117, 3-amino-7-(5-(2-hydroxypropan-2-yl)-1-methyl-1H-pyrazol-3-yl)-5-(2-methylcyclohexyl)-1,5-dihydro-4H-pyrazolo[4,3-c]pyridin-4-one] | 85 | 97 | 85 | 99 |  |  |  | 
CC1CCCCC1n1cc(-c2cc(C(C)(C)O)n(C)n2)c2[nH]nc(N)c2c1=O (stereo not drawn) [Example 118, 3-amino-7-(5-(2-hydroxypropan-2-yl)-1-methyl-1H-pyrazol-3-yl)-5-(2-methylcyclohexyl)-1,5-dihydro-4H-pyrazolo[4,3-c]pyridin-4-one] |  |  |  |  | 97 | 99 | 98 | 100
CC1CCCCC1n1cc(-c2cc(C(C)(C)O)n(C)n2)c2[nH]nc(N)c2c1=O (stereo not drawn) [Example 119, 3-amino-7-(5-(2-hydroxypropan-2-yl)-1-methyl-1H-pyrazol-3-yl)-5-(2-methylcyclohexyl)-1,5-dihydro-4H-pyrazolo[4,3-c]pyridin-4-one] |  |  |  |  | 98 | 100 | 99 | 100
CC1CCCCC1n1cc(-c2cc(C(C)(C)O)n(C)n2)c2[nH]nc(N)c2c1=O (stereo not drawn) [Example 120, 3-amino-7-(5-(2-hydroxypropan-2-yl)-1-methyl-1H-pyrazol-3-yl)-5-(2-methylcyclohexyl)-1,5-dihydro-4H-pyrazolo[4,3-c]pyridin-4-one] |  |  |  |  | 100 | 100 | 100 | 101
COC(C)(C)c1cc(-c2cn(-c3c(F)cccc3C#N)c(=O)c3c(N)n[nH]c23)nn1C [Example 121, 2-(3-amino-7-(5-(2-methoxypropan-2-yl)-1-methyl-1H-pyrazol-3-yl)-4-oxo-1,4-dihydro-5H-pyrazolo[4,3-c]pyridin-5-yl)-3-fluorobenzonitrile] | 98 | 97 | 98 | 100 |  |  |  | 
CC(C)N(C)c1cc(-c2cn(-c3c(F)cccc3C#N)c(=O)c3c(N)n[nH]c23)nn1C [Example 122, 2-(3-amino-7-(5-(isopropyl(methyl)amino)-1-methyl-1H-pyrazol-3-yl)-4-oxo-1,4-dihydro-5H-pyrazolo[4,3-c]pyridin-5-yl)-3-fluorobenzonitrile] | 93 | 97 | 97 | 101 |  |  |  | 
CN(c1cc(-c2cn(-c3c(F)cccc3C#N)c(=O)c3c(N)n[nH]c23)nn1C)C1CCCC1 [Example 123, 2-(3-amino-7-(5-(cyclopentyl(methyl)amino)-1-methyl-1H-pyrazol-3-yl)-4-oxo-1,4-dihydro-5H-pyrazolo[4,3-c]pyridin-5-yl)-3-fluorobenzonitrile] | 94 | 95 | 97 | 100 |  |  |  | 
CO[C@]1(c2cc(-c3cn(-c4c(F)cccc4F)c(=O)c4c(N)n[nH]c34)nn2C)C[C@H](C(=O)N(C)C)C1 [Example 124, cis-3-(3-(3-amino-5-(2,6-difluorophenyl)-4-oxo-4,5-dihydro-1H-pyrazolo[4,3-c]pyridin-7-yl)-1-methyl-1H-pyrazol-5-yl)-3-methoxy-N,N-dimethylcyclobutanecarboxamide] | 99 | 100 | 99 | 101 |  |  |  | 
CN(C)[C@@H]1CCN(c2cc(-c3cn(-c4c(F)cccc4F)c(=O)c4c(N)n[nH]c34)nn2C)C1 [Example 125, 3-amino-5-(2,6-difluorophenyl)-7-(5-((3R)-3-(dimethylamino)pyrrolidin-1-yl)-1-methyl-1H-pyrazol-3-yl)-1,5-dihydro-4H-pyrazolo[4,3-c]pyridin-4-one] | 98 | 99 | 98 | 99 |  |  |  | 
CN(C)C[C@H]1CCCN1c1cc(-c2cn(-c3c(F)cccc3F)c(=O)c3c(N)n[nH]c23)nn1C [Example 126, 3-amino-5-(2,6-difluorophenyl)-7-(5-((2R)-2-((dimethylamino)methyl)pyrrolidin-1-yl)-1-methyl-1H-pyrazol-3-yl)-1,5-dihydro-4H-pyrazolo[4,3-c]pyridin-4-one] | 98 | 99 | 92 | 98 |  |  |  | 
Cn1nc(-c2cn(-c3c(F)cccc3F)c(=O)c3c(N)n[nH]c23)cc1N1CCC(C)(C#N)CC1 [Example 127, 1-(3-(3-amino-5-(2,6-difluorophenyl)-4-oxo-4,5-dihydro-1H-pyrazolo[4,3-c]pyridin-7-yl)-1-methyl-1H-pyrazol-5-yl)-4-methylpiperidine-4-carbonitrile] | 99 | 100 | 99 | 100 |  |  |  | 
COC[C@H]1CCCN1c1cc(-c2cn(-c3c(F)cccc3F)c(=O)c3c(N)n[nH]c23)nn1C [Example 128, 3-amino-5-(2,6-difluorophenyl)-7-(5-((2R)-2-(methoxymethyl)pyrrolidin-1-yl)-1-methyl-1H-pyrazol-3-yl)-1,5-dihydro-4H-pyrazolo[4,3-c]pyridin-4-one] | 98 | 99 | 98 | 100 |  |  |  | 
COC1(c2cc(-c3cn(-c4c(F)cccc4F)c(=O)c4c(N)n[nH]c34)nn2C)CCS(=O)(=O)CC1 [Example 129, 3-amino-5-(2,6-difluorophenyl)-7-(5-(4-methoxy-1,1-dioxidotetrahydro-2H-thiopyran-4-yl)-1-methyl-1H-pyrazol-3-yl)-1,5-dihydro-4H-pyrazolo[4,3-c]pyridin-4-one] | 99 | 99 | 97 | 100 |  |  |  | 
COC1(c2cc(-c3cn(-c4c(F)cccc4F)c(=O)c4c(N)n[nH]c34)nn2C)CN(C(=O)C(C)C)C1 [Example 130, 3-amino-5-(2,6-difluorophenyl)-7-(5-(1-isobutyryl-3-methoxyazetidin-3-yl)-1-methyl-1H-pyrazol-3-yl)-1,5-dihydro-4H-pyrazolo[4,3-c]pyridin-4-one] | 98 | 99 | 96 | 101 |  |  |  | 
COC1(c2cc(-c3cn(-c4c(F)cccc4F)c(=O)c4c(N)n[nH]c34)nn2C)CN(C(C)=O)C1 [Example 131, 7-(5-(1-acetyl-3-methoxyazetidin-3-yl)-1-methyl-1H-pyrazol-3-yl)-3-amino-5-(2,6-difluorophenyl)-1,5-dihydro-4H-pyrazolo[4,3-c]pyridin-4-one] | 98 | 99 | 95 | 100 |  |  |  | 
